Experimental data reported in patent publication EP4603105A1, “PHARMACEUTICAL COMPOSITION CONTAINING CYCLIC COMPOUND HAVING SELECTIVE KRAS INHIBITORY EFFECT AGAINST HRAS AND NRAS” (CHUGAI SEIYAKU KABUSHIKI KAISHA, priority 2022, dated 2024).
Where a SMILES comes first, the peptide text is derived from it. Bridges are numbered along the chain shown (N, C = ends). [ ]: non-standard residue; d: D form. The star is where a group is joined. hPhe(3,5-F2-4-CF3) = N[C@@H](CCc1cc(F)c(C(F)(F)F)c(F)c1)C(=O)O; NPrPhe(4-CF3) = CCCN[C@@H](Cc1ccc(C(F)(F)F)cc1)C(=O)O; NMeGly(cPent) = CN[C@H](C(=O)O)C1CCCC1; NMeD = CN[C@@H](CC(=O)O)C(=O)O; NMeL = CN[C@@H](CC(C)C)C(=O)O; αMeV = CC(C)[C@](C)(N)C(=O)O; Morpholide = C1CN(*)CCO1; Aze = O=C(O)[C@@H]1CCN1; Sar = CNCC(=O)O

Tests used:
[1] = target: GDP-bound KRAS wild-type protein (Homo sapiens, UniProt P01116); test: Binding to KRAS by surface plasmon resonance (SPR), dissociation constant KD
Sequence of GDP-bound KRAS wild-type protein (P01116 1-188 isoform P01116-2): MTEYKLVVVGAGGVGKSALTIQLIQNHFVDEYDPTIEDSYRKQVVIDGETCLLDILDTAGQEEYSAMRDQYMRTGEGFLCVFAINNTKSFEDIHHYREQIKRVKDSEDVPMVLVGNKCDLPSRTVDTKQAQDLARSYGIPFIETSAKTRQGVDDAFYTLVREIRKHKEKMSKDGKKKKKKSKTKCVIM
Outline: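 SPR, 30°C: Avi-biotin RAS·GDP captured via Biotin CAPture (~100–300 RU); running buffer HBS pH 7.4, 1 mM DTT, 10 mM MgCl2, 0.01% Tween 20, 10 µM GDP, 4% DMSO. Single-cycle kinetics, 100 µL/min, 75 s injections; 1:1 model → KD.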

[2] = target: GDP-bound NRAS wild-type protein (Homo sapiens, UniProt P01111); test: Binding to NRAS by surface plasmon resonance (SPR), KD and KD ratio to KRAS
Sequence of GDP-bound NRAS wild-type protein (P01111 whole entry): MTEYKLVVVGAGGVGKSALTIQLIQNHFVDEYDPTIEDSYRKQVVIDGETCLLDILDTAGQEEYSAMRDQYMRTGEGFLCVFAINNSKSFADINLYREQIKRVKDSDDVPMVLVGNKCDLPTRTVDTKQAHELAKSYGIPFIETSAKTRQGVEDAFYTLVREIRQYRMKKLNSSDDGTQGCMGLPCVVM
Outline: (§1)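 Biotinylated GDP-bound RAS was captured at about 100–300 RU. Running buffer: HBS pH 7.4, 10 mM MgCl2, 10 µM GDP, 1 mM DTT, 0.01% Tween 20, 4% DMSO.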

HRAS wild-type protein = HRAS wild-type protein (Homo sapiens, UniProt P01112); test: Binding to HRAS by surface plasmon resonance (SPR), KD and KD ratio to KRAS
Sequence of HRAS wild-type protein (P01112 whole entry): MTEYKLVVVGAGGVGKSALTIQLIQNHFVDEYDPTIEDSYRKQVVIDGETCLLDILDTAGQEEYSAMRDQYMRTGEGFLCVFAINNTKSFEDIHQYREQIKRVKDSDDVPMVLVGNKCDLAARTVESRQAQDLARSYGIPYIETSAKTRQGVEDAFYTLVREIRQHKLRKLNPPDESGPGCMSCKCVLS
Outline: as §1

[3] = test system: human lung cancer strain NCI-H441; type: cell-based
Outline: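 Step one: dispense the test compound in serial DMSO dilutions. Step three: add the reagent and measure […].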

[4] = Single Cycle Kinetics, 1:1 binding model
[5] = ratio of the KD value with respect to GDP-bound NRAS wild-type protein to the KD value with respect to KRAS
[6] = ratio of the KD value with respect to HRAS wild-type protein to the KD value with respect to KRAS
[7] = ratio of KD for GDP-bound NRAS wild-type protein to KD for KRAS
[8] = ratio of KD for HRAS wild-type protein to KD for KRAS

## CC[C@H](C)[C@@H]1NC(=O)[C@H](C2CCC2)N(C)C(=O)C[C@@H](C(=O)N(C)CC)N(C)C(=O)[C@H](C2CCCC2)N(C)C(=O)C2(CCC2)NC(=O)[C@@H]2C[C@H](C)CN2C(=O)[C@H](CCc2cc(F)c(C(F)(F)F)c(F)c2)NC(=O)CN(C)C(=O)[C@H](Cc2ccc(C(F)(F)F)cc2)N2CC/C=C\C[C@@H](C2=O)N(C)C(=O)CN(C)C1=O [PP2082]
[1]; [4]
  Kd: 0.11 nM
[2]; [5]
  NRAS /KRAS: AA (a compound having 20 or more is denoted as AA)
HRAS wild-type protein; [6]
  HRAS /KRAS: A (a compound having 10 or more and less than 20 is denoted as A)
[3]
  IC50: 7.8 nM

## CCC[C@H]1C(=O)N[C@@H](C2CCCCC2)C(=O)N(C)CC(=O)N(C)[C@H]2C/C=C\CCN(C2=O)[C@@H](Cc2ccc(C)cc2)C(=O)N(C)CC(=O)N[C@@H](CCc2ccc(C(F)(F)F)c(Cl)c2)C(=O)N2C[C@H](OCC)C[C@H]2C(=O)NC2(CC(C)(C)C2)C(=O)N(C)[C@@H](CC(C)C)C(=O)N(C)[C@H](C(=O)N(C)C)CC(=O)N1C [PP3021]
[1]; 1:1 binding model
  Kd: 1.1 nM
[2]; [7]
  NRAS /KRAS: AA (a compound having 20 or more is denoted as AA)
HRAS wild-type protein; [8]
  HRAS /KRAS: A (a compound having 10 or more and less than 20 is denoted as A)
[3]
  IC50: 76.7 nM

## CCO[C@@H]1C[C@H]2C(=O)N(C)C3(CCC3)C(=O)N(C)[C@@H](C3CCCC3)C(=O)N(C)[C@H](C(=O)N(C)C)CC(=O)N(C)[C@@H](CC3CC3)C(=O)N[C@@H]([C@@H](C)CC)C(=O)N(C)CC(=O)N(C)[C@H]3C/C=C\CCN(C3=O)[C@@H](Cc3ccc(C)cc3)C(=O)N(C)CC(=O)N[C@@H](CCc3cc(F)c(C(F)(F)F)c(F)c3)C(=O)N2C1 [PP1795]
[1]; [4]
  Kd: 0.031 nM
[2]; ratio of KD value for GDP-bound NRAS wild-type protein to KD value for KRAS (SPR)
  NRAS /KRAS: A (a compound having 10 or more and less than 20 is denoted as A)
HRAS wild-type protein; ratio of KD value for HRAS wild-type protein to KD value for KRAS (SPR)
  HRAS /KRAS: B (a compound having 3 or more and less than 10 is denoted as B)
[3]
  IC50: 3 nM

## CCC[C@H]1C(=O)N[C@@H]([C@H](C)CC)C(=O)N(C)CC(=O)N(C)[C@H]2C/C=C\CCN(C2=O)[C@@H](Cc2ccc(C)cc2)C(=O)N(C)CC(=O)N[C@@H](CCc2ccc(C(F)(F)F)c(Cl)c2)C(=O)N2C[C@H](OCC)C[C@H]2C(=O)NC2(CC(C)(C)C2)C(=O)N(C)[C@@H](C2CCCC2)C(=O)N(C)[C@H](C(=O)N(C)C)CC(=O)N1C [PP2221]
[1]; [4]
  Kd: 1.7 nM
[2]; [5]
  NRAS /KRAS: A (a compound having 10 or more and less than 20 is denoted as A)
HRAS wild-type protein; [6]
  HRAS /KRAS: A (a compound having 10 or more and less than 20 is denoted as A)
[3]
  IC50: 40.5 nM

## CCCN1C(=O)CN(C)C(=O)[C@@H]2CCN2C(=O)[C@H]([C@@H](C)CC)NC(=O)[C@H](CC(C)C)N(C)C(=O)C[C@@H](C(=O)N2CCOCC2)N(C)C(=O)[C@H](C2CCCC2)N(C)C(=O)[C@](C)(C(C)C)NC(=O)[C@@H]2CCCN2C(=O)[C@H](CCc2cc(F)c(C(F)(F)F)c(F)c2)NC(=O)CN(C)C(=O)[C@@H]1Cc1ccc(C(F)(F)F)cc1 [PP0773] ([NMeL]I[Aze][Sar][NPrPhe(4-CF3)][Sar][hPhe(3,5-F2-4-CF3)]P[αMeV][NMeGly(cPent)][NMeD]-Morpholide; lactam N-11)
[1]; Single Cycle Kinetics
  Kd: 4 nM
[2]; [7]
  NRAS /KRAS: B (a compound having 3 or more and less than 10 is denoted as B)
HRAS wild-type protein; [8]
  HRAS /KRAS: B (a compound having 3 or more and less than 10 is denoted as B)
[3]
  IC50: 170 nM

## C#CC[C@H]1C(=O)N[C@@H]([C@@H](C)CC)C(=O)N(C)CC(=O)N(C)[C@H]2C/C=C\CCN(C2=O)[C@@H](Cc2ccc(C)cc2)C(=O)N(C)CC(=O)N[C@@H](CCc2cc(F)c(C(F)(F)F)c(F)c2)C(=O)N2CC3(CC3)C[C@H]2C(=O)NC2(CC(C)(C)C2)C(=O)N(C)[C@@H](C2CCCC2)C(=O)N(C)[C@H](C(=O)N(C)C)CC(=O)N1C [PP2978]
[1]; 1:1 binding model
  Kd: 0.11 nM
[2]; [7]
  NRAS /KRAS: A (a compound having 10 or more and less than 20 is denoted as A)
HRAS wild-type protein; [8]
  HRAS /KRAS: A (a compound having 10 or more and less than 20 is denoted as A)
[3]
  IC50: 5.9 nM

## CCO[C@@H]1C[C@H]2C(=O)NC3(CC(C)(C)C3)C(=O)N(C)[C@@H](C3CCCC3)C(=O)N(C)[C@H](C(=O)N(C)CC)CC(=O)N(C)[C@@H](CC(C)C)C(=O)N[C@@H]([C@@H](C)CC)C(=O)N(C)CC(=O)N(C)[C@H]3C/C=C\CCN(C3=O)[C@@H](Cc3ccc(C(F)F)cc3)C(=O)N(C)CC(=O)N[C@@H](CCc3ccc4c(c3)CCC4(F)F)C(=O)N2C1 [PP3152]
[1]; 1:1 binding model
  Kd: 2 nM
[2]; [7]
  NRAS /KRAS: AA (a compound having 20 or more is denoted as AA)
HRAS wild-type protein; [8]
  HRAS /KRAS: A (a compound having 10 or more and less than 20 is denoted as A)
[3]
  IC50: 620 nM
